Source: US10851069B2, “Compositions of crystallized hydrophobic compounds and methods of making and using same” (Massachusetts Institute of Technology, priority 2016, dated 2020)

Legend:
C57BL/6 mice = assay: PDMS discs loaded with GW2580 crystals implanted SC and IP; type: in vivo
Description: Another study was done by mixing GW2580 crystals at different ratios of 1, 5 and 10% w/w with PDMS to form disks of 2.2 mm thickness and 5 mm diameter prepared at ratio 9:1 (PDMS: curing reagent) and were solidified overnight at 45° C. These disks were implanted into SC and IP spaces in C57BL/6 mice and then retrieved and analyzed at 2 weeks, 4 weeks, and 3 months post implantation in C57BL/6 mice (1 disc/site/mouse). […] Retrieved materials where fixed overnight using 4% paraformaldehyde at 4° C. After fixation, alginate sphere or retrieved tissue samples were washed using 70% alcohol. The materials where then mixed with 4 degrees calcium-cooled Histogel (VWR, CA #60872-486). After the molds hardened, the blocks were processed for paraffin embedding, sectioning and staining according to standard histological methods. Single-cell suspensions of freshly excised tissues were prepared using a gentle MACS Dissociator (Miltenyi Biotec, Auburn, Calif.) according to the manufacturer's protocol. Single-cell suspensions were prepared in a passive PEB dissociation buffer (1×PBS, pH 7.2, 0.5% BSA, and 2 mM EDTA) and suspensions were passed through 70 μm filters (Cat. #22363548, Fisher Scientific, Pittsburgh, Pa.). This process removed the majority of cells adhered to the surface (>90%). All tissue and material sample-derived, single-cell populations were then subjected to red blood cell lysis with 5 ml of 1×RBC lysis buffer (Cat. #00-4333, eBioscience, San Diego, Calif., USA) for 5 min at 4° C. The reaction was terminated by the addition of 20 ml of sterile 1×PBS. The cells remaining were centrifuged at 300-400 g at 4° C. and resuspended in a minimal volume (˜50 μl) of eBioscience Staining Buffer (cat. #00-4222) for antibody incubation. All samples were then co-stained in the dark for 25 min at 4° C. with two of the fluorescently tagged monoclonal antibodies specific for the cell markers CD68 (1 μl (0.5 μg) per sample; CD68-Alexa647, Clone FA-11, Cat. #11-5931, BioLegend), Ly-6G (Gr-1) (1 μl (0.5 μg) per sample; Ly-6G-Alexa-647, Clone RB6-8C5, Cat. #108418, BioLegend), CD11b (1 μl (0.2 μg) per sample; or CD11b-Alexa-488, Clone M1/70, Cat. #101217, BioLegend). For alpha smooth muscle actin (fibrosis) analysis, additional cell aliquots were also fixed in 1% paraformaldehyde and permeabilized with 0.1% triton X-100 before being stained with Cy3-conjugated anti-mouse αSM actin antibody (1:100) (Sigma Aldrich, St. Louis, Mo.). Two ml of eBioscience Flow Cytometry Staining Buffer (cat. #00-4222, eBioscience) was then added, and the samples were centrifuged at 400-500 g for 5 min at 4° C. Supernatants were removed by aspiration, and this wash step was repeated two more times with staining buffer. Following the third wash, each sample was resuspended in 500 μl of Flow Cytometry Staining Buffer and run through a 40 μm filter (Cat. #22363547, Fisher Scientific) for eventual FACS analysis using a BD FACSCalibur (cat. #342975), BD Biosciences, San Jose, Calif., USA). For proper background and laser intensity settings, unstained, single antibody, and IgG (labeled with either Alexa-488 or Alexa-647, BioLegend) controls were also run. For primate cell staining, anti-human CD68 Alexa Fluor-647-conjugated antibody (Clone KP1, Cat. #sc-20060, Santa Cruz, Dallas, Tex.) was used in conjunction with the above BioLegend (anti-mouse/human) CD11b-AF488 antibody.

rat islets = assay: Live/dead islet staining of islets co-encapsulated with drug; type: cell-based; settings: amorphous and crystalline forms
Description: Male Sprague-Dawley rats from Jackson Laboratories (Bar Harbor, Me.) weighing approximately 300 grams were used for harvesting islets. All rats were anesthetized by a 1:20 xylazine (10 mg/kg) to ketamine (150 mg/kg) injection given intraperitoneally, and the total volume of each injection was 0.4 ml-0.5 ml depending on the weight of rat. Isolation surgeries were performed as described by Lacy and Kostianovsky^2. Briefly, the bile duct was cannulated and the pancreas was distended by an in vivo injection of 0.15% Liberase (Research Grade, Roche) in RPMI 1640 media solution. Rats were sacrificed by cutting the descending aorta and the distended pancreatic organs were removed and held in 50 ml conical tubes on ice until the completion of all surgeries. All tubes were placed in a 37° C. water bath for a 30 min digestion, which was stopped by adding 10-15 ml of cold M199 media with 10% heat-inactivated fetal bovine serum (HIFBS) and lightly shaking. Digested pancreases were washed twice in the same aforementioned M199 media, filtered through a 450 μm sieve, and then suspended in a Histopaque 1077 (Sigma)/M199 media gradient and centrifuged at 1,700 RCF at 4° C. […] Purified islets were hand-counted by aliquot under a light microscope and then washed three times in sterile ix phosphate-buffered saline. […]

Compound: COc1ccc(COc2ccc(Cc3cnc(N)nc3N)cc2OC)cc1 [GW2580, 5-[[3-Methoxy-4-[(4-methoxyphenyl)methoxy]phenyl]methyl]-2,4-pyrimidinediamine]
- foreign body response (plaque on retrieved PDMS discs) (C57BL/6 mice; 1, 5 and 10% w/w crystals, 2 and 4 weeks, 3 months): reduced in a dose-dependent fashion
- remaining drug levels (% loading, HPLC), SC versus IP (C57BL/6 mice; 2 weeks, 4 weeks, 3 months): release was slower in the SC space
- responding macrophages dissociated from discs (FACS) (C57BL/6 mice; all time points, IP and SC): significantly reduced cell numbers
- immune cell infiltration and fibrosis (H&E and Masson's Trichrome) (C57BL/6 mice; excised SC and IP tissues, versus blank discs): significantly reduced immune cell infiltration and fibrosis
- drug retention, PDMS versus alginate (C57BL/6 mice; same incubation times): drug retention was much higher in polymer PDMS
- toxicity to co-encapsulated islets (dead/live imaging) (rat islets): non-toxic
